Laboratory results published in paper PMC4303209, “A novel phosphatidylinositol 3-kinase (PI3K) inhibitor directs a potent FOXO-dependent, p53-independent cell cycle arrest phenotype characterized by the differential induction of a subset of FOXO-regulated genes” (Breast Cancer Research : BCR, 2014).

System: MCF-7 breast cancer cells
Assay: Microarray gene expression analysis (Agilent whole human genome 4 x 44K; compound vs DMSO, LIMMA log2 fold change)
Type: cell-based

In the case of `Cn1ncc2c(N3CCOCC3)nc(-c3cccc(O)c3)nc21` [ETP-45658], the “PRNP log2FC” value is reported as 0.370, the log2FC is reported as 0.370 and the “AARS log2FC” value (Apoptosis genes, Gene 16) is reported as -0.198. For the same compound, the “ABL1 log2FC” value (Apoptosis genes, Gene 25) was -0.156, the “ABR log2FC” value (Apoptosis genes, Gene 29) was -0.380 and the “ACTN4 log2FC” value (Apoptosis genes, Gene 81) was -0.260. The “ACTN1 log2FC” value (Apoptosis genes, Gene 87) was -0.609, the “ACTN2 log2FC” value (Apoptosis genes, Gene 88) was 0.099 and the “ACTN3 log2FC” value (Apoptosis genes, Gene 89) was -0.693. The “ACVR1 log2FC” value (Apoptosis genes, Gene 90) was 0.534, the “ACVR1B log2FC” value (Apoptosis genes, Gene 91) was -0.563 and the “ADA log2FC” value (Apoptosis genes, Gene 100) was -0.213. For the same compound, the “ADAM8 log2FC” value (Apoptosis genes, Gene 101) was -0.364, the “ADAR log2FC” value (Apoptosis genes, Gene 103) was -0.197 and the “ADCYAP1 log2FC” value (Apoptosis genes, Gene 116) was 0.068. The “ADD1 log2FC” value (Apoptosis genes, Gene 118) was -0.295, the “ADM log2FC” value (Apoptosis genes, Gene 133) was -0.856 and the “ADORA1 log2FC” value (Apoptosis genes, Gene 134) was -2.012. The “ADORA2A log2FC” value (Apoptosis genes, Gene 135) was -0.309, the “ADRB1 log2FC” value (Apoptosis genes, Gene 153) was -0.090 and the “AES log2FC” value (Apoptosis genes, Gene 166) was -0.293. The “AGT log2FC” value (Apoptosis genes, Gene 183) was -0.104, the “AHR log2FC” value (Apoptosis genes, Gene 196) was 0.995 and the “AKT1 log2FC” value (Apoptosis genes, Gene 207) was -0.608. For the same compound, the “AKT2 log2FC” value (Apoptosis genes, Gene 208) was -0.554, the “ALDH1A3 log2FC” value (Apoptosis genes, Gene 220) was 0.149 and the “ALDOC log2FC” value (Apoptosis genes, Gene 230) was -0.120. The “ALK log2FC” value (Apoptosis genes, Gene 238) was -0.050, the “ALOX15B log2FC” value (Apoptosis genes, Gene 247) was -0.102 and the “ANGPT1 log2FC” value (Apoptosis genes, Gene 284) was -0.676. The “SLC25A4 log2FC” value (Apoptosis genes, Gene 291) was -0.331, the “SLC25A5 log2FC” value (Apoptosis genes, Gene 292) was 0.173 and the “ANXA1 log2FC” value (Apoptosis genes, Gene 301) was 0.991. The “ANXA4 log2FC” value (Apoptosis genes, Gene 307) was 0.463, the “ANXA5 log2FC” value (Apoptosis genes, Gene 308) was 0.266 and the “APAF1 log2FC” value (Apoptosis genes, Gene 317) was 0.550. The “NUDT2 log2FC” value (Apoptosis genes, Gene 318) was 0.291, the “APBB2 log2FC” value (Apoptosis genes, Gene 323) was -0.357 and the “APC log2FC” value (Apoptosis genes, Gene 324) was 0.117. The “BIRC3 log2FC” value (Apoptosis genes, Gene 330) was -0.843, the “BIRC5 log2FC” value (Apoptosis genes, Gene 332) was 0.154 and the “APLP1 log2FC” value (Apoptosis genes, Gene 333) was -0.281. For the same compound, the “APOE log2FC” value (Apoptosis genes, Gene 348) was -0.224, the “APP log2FC” value (Apoptosis genes, Gene 351) was 0.379 and the “FASLG log2FC” value (Apoptosis genes, Gene 356) was -0.198. The “AQP2 log2FC” value (Apoptosis genes, Gene 359) was -0.102, the “AR log2FC” value (Apoptosis genes, Gene 367) was 0.203 and the “ARAF log2FC” value (Apoptosis genes, Gene 369) was -0.542. For the same compound, the “ARF6 log2FC” value (Apoptosis genes, Gene 382) was -0.682, the “RHOB log2FC” value (Apoptosis genes, Gene 388) was -0.133 and the “ARHGAP4 log2FC” value (Apoptosis genes, Gene 393) was -0.218. For the same compound, the “ARHGDIA log2FC” value (Apoptosis genes, Gene 396) was -1.118, the “ARRB2 log2FC” value (Apoptosis genes, Gene 409) was 0.237 and the “ASCL1 log2FC” value (Apoptosis genes, Gene 429) was -0.107. The “ASNS log2FC” value (Apoptosis genes, Gene 440) was -0.404, the “ATF4 log2FC” value (Apoptosis genes, Gene 468) was 0.324 and the “ATM log2FC” value (Apoptosis genes, Gene 472) was 0.117. The “ATP2A1 log2FC” value (Apoptosis genes, Gene 487) was 0.239, the “AVP log2FC” value (Apoptosis genes, Gene 551) was -0.579 and the “AXL log2FC” value (Apoptosis genes, Gene 558) was -0.230. For the same compound, the “AZU1 log2FC” value (Apoptosis genes, Gene 566) was -0.123, the “BAD log2FC” value (Apoptosis genes, Gene 572) was 0.276 and the “BAG1 log2FC” value (Apoptosis genes, Gene 573) was 1.170. The “BAK1 log2FC” value (Apoptosis genes, Gene 578) was -0.356, the “BARD1 log2FC” value (Apoptosis genes, Gene 580) was 0.487 and the “BAX log2FC” value (Apoptosis genes, Gene 581) was -0.255. For the same compound, the “BCL2 log2FC” value (Apoptosis genes, Gene 596) was -0.310, the “BCL2A1 log2FC” value (Apoptosis genes, Gene 597) was -0.192 and the “BCL2L1 log2FC” value (Apoptosis genes, Gene 598) was -0.991. For the same compound, the “BCL2L2 log2FC” value (Apoptosis genes, Gene 599) was 0.428, the “BCL3 log2FC” value (Apoptosis genes, Gene 602) was -0.569 and the “BCL6 log2FC” value (Apoptosis genes, Gene 604) was 0.771. For the same compound, the “BDNF log2FC” value (Apoptosis genes, Gene 627) was -0.132, the “BID log2FC” value (Apoptosis genes, Gene 637) was -0.095 and the “BIK log2FC” value (Apoptosis genes, Gene 638) was -0.815. The “BLM log2FC” value (Apoptosis genes, Gene 641) was 0.293, the “BMP4 log2FC” value (Apoptosis genes, Gene 652) was 0.407 and the “BMP7 log2FC” value (Apoptosis genes, Gene 655) was -0.344. For the same compound, the “BMPR1B log2FC” value (Apoptosis genes, Gene 658) was -0.091, the “BMX log2FC” value (Apoptosis genes, Gene 660) was 0.114 and the “BNIP1 log2FC” value (Apoptosis genes, Gene 662) was 0.672. The “BNIP2 log2FC” value (Apoptosis genes, Gene 663) was 0.527, the “BNIP3 log2FC” value (Apoptosis genes, Gene 664) was 0.774 and the “BNIP3L log2FC” value (Apoptosis genes, Gene 665) was 1.085. The “FOXL2 log2FC” value (Apoptosis genes, Gene 668) was -0.812, the “BRCA1 log2FC” value (Apoptosis genes, Gene 672) was 0.792 and the “BRAF log2FC” value (Apoptosis genes, Gene 673) was -0.105. For the same compound, the “BRCA2 log2FC” value (Apoptosis genes, Gene 675) was 0.092, the “BTC log2FC” value (Apoptosis genes, Gene 685) was 0.205 and the “BTG1 log2FC” value (Apoptosis genes, Gene 694) was 1.142. The “BUB1 log2FC” value (Apoptosis genes, Gene 699) was 0.803, the “BUB1B log2FC” value (Apoptosis genes, Gene 701) was 0.344 and the “TSPO log2FC” value (Apoptosis genes, Gene 706) was -0.089. For the same compound, the “C5AR1 log2FC” value (Apoptosis genes, Gene 728) was 0.064, the “CACNA1A log2FC” value (Apoptosis genes, Gene 773) was -0.187 and the “CALR log2FC” value (Apoptosis genes, Gene 811) was -0.081. The “CAMK2B log2FC” value (Apoptosis genes, Gene 816) was -0.123, the “CAST log2FC” value (Apoptosis genes, Gene 831) was 0.572 and the “CASP1 log2FC” value (Apoptosis genes, Gene 834) was 0.048. For the same compound, the “CASP2 log2FC” value (Apoptosis genes, Gene 835) was -0.918, the “CASP3 log2FC” value (Apoptosis genes, Gene 836) was 0.546 and the “CASP4 log2FC” value (Apoptosis genes, Gene 837) was 0.181. For the same compound, the “CASP5 log2FC” value (Apoptosis genes, Gene 838) was -0.128, the “CASP6 log2FC” value (Apoptosis genes, Gene 839) was 0.574 and the “CASP7 log2FC” value (Apoptosis genes, Gene 840) was -0.211. For the same compound, the “CASP8 log2FC” value (Apoptosis genes, Gene 841) was 0.613, the “CASP9 log2FC” value (Apoptosis genes, Gene 842) was 0.372 and the “CASR log2FC” value (Apoptosis genes, Gene 846) was 0.039. The “CAT log2FC” value (Apoptosis genes, Gene 847) was 0.577, the “CAV1 log2FC” value (Apoptosis genes, Gene 857) was 0.205 and the “RUNX3 log2FC” value (Apoptosis genes, Gene 864) was -0.494. For the same compound, the “CBL log2FC” value (Apoptosis genes, Gene 867) was 0.301, the “CBS log2FC” value (Apoptosis genes, Gene 875) was -0.275 and the “KRIT1 log2FC” value (Apoptosis genes, Gene 889) was 0.668. The “CCNG1 log2FC” value (Apoptosis genes, Gene 900) was 0.908, the “CD2 log2FC” value (Apoptosis genes, Gene 914) was -0.352 and the “CD3E log2FC” value (Apoptosis genes, Gene 916) was -0.399. The “CD3G log2FC” value (Apoptosis genes, Gene 917) was -0.295, the “CD5 log2FC” value (Apoptosis genes, Gene 921) was -0.055 and the “CD5L log2FC” value (Apoptosis genes, Gene 922) was -0.110. For the same compound, the “CD14 log2FC” value (Apoptosis genes, Gene 929) was -0.514, the “CD28 log2FC” value (Apoptosis genes, Gene 940) was 0.087 and the “CD40 log2FC” value (Apoptosis genes, Gene 958) was -0.420. The “CD44 log2FC” value (Apoptosis genes, Gene 960) was -0.380, the “CD59 log2FC” value (Apoptosis genes, Gene 966) was 0.286 and the “CD74 log2FC” value (Apoptosis genes, Gene 972) was -0.135. For the same compound, the “CDC34 log2FC” value (Apoptosis genes, Gene 997) was 0.349, the “CDC42 log2FC” value (Apoptosis genes, Gene 998) was 0.143 and the “CDK4 log2FC” value (Apoptosis genes, Gene 1019) was 0.113. For the same compound, the “CDKN1A log2FC” value (Apoptosis genes, Gene 1026) was -1.401, the “CDKN1B log2FC” value (Apoptosis genes, Gene 1027) was 1.129 and the “CDKN2A log2FC” value (Apoptosis genes, Gene 1029) was 0.240. The “CDKN2D log2FC” value (Apoptosis genes, Gene 1032) was 0.891, the “CEBPB log2FC” value (Apoptosis genes, Gene 1051) was -0.358 and the “CFL1 log2FC” value (Apoptosis genes, Gene 1072) was -0.261. The “CTSC log2FC” value (Apoptosis genes, Gene 1075) was -0.466, the “CGB log2FC” value (Apoptosis genes, Gene 1082) was -0.136 and the “CLU log2FC” value (Apoptosis genes, Gene 1191) was -0.261. For the same compound, the “CLN3 log2FC” value (Apoptosis genes, Gene 1201) was -0.330, the “CCR7 log2FC” value (Apoptosis genes, Gene 1236) was 0.098 and the “PLK3 log2FC” value (Apoptosis genes, Gene 1263) was -1.808. For the same compound, the “CNR1 log2FC” value (Apoptosis genes, Gene 1268) was 0.800, the “ATF2 log2FC” value (Apoptosis genes, Gene 1386) was 0.857 and the “CRH log2FC” value (Apoptosis genes, Gene 1392) was 0.120. The “CRIP1 log2FC” value (Apoptosis genes, Gene 1396) was 0.282, the “CRYAA log2FC” value (Apoptosis genes, Gene 1409) was -0.057 and the “CRYAB log2FC” value (Apoptosis genes, Gene 1410) was -0.139. The “MAPK14 log2FC” value (Apoptosis genes, Gene 1432) was -0.291, the “CSE1L log2FC” value (Apoptosis genes, Gene 1434) was 0.841 and the “CSF2 log2FC” value (Apoptosis genes, Gene 1437) was -0.666. For the same compound, the “CSNK2A1 log2FC” value (Apoptosis genes, Gene 1457) was -0.545, the “CSNK2A2 log2FC” value (Apoptosis genes, Gene 1459) was 0.183 and the “CSTB log2FC” value (Apoptosis genes, Gene 1476) was 0.083. The “NKX2-5 log2FC” value (Apoptosis genes, Gene 1482) was -0.753, the “CTGF log2FC” value (Apoptosis genes, Gene 1490) was -0.597 and the “CTH log2FC” value (Apoptosis genes, Gene 1491) was 0.708.
